The values that follow come from ChEMBL document CHEMBL4049450, “Discovery of 5-Azaindazole (GNE-955) as a Potent Pan-Pim Inhibitor with Optimized Bioavailability” (J Med Chem, 2017).

Converted amounts (≈) assume the structure as drawn.

A short description of data set [1]: Clearance in rat at 1 mg/kg, iv. The conditions noted are these: in vivo. Type of data set: ADME, organism-based.
The target in data set [2] is Serine/threonine-protein kinase pim-2 (Homo sapiens, UniProt Q9P1W9). Kind of data set: Inhibition of PIM2 (unknown origin) using 5FAM-ARKRRRHPSGPPTA as substrate after 90 mins in presence of ATP by caliper microfluidic mobility shift assay.
In the next data set the test system is MM1.S. Kind of data set: Antiproliferative activity against human MM1S cells after 72 hrs by CellTiter-Glo assay. Type of data set: functional, cell-based. A general note: ATP-based viability assays read luminescence as a measure of living cells.
Data set [3] is described as follows: Oral bioavailability in rat at 5 mg/kg. Format: ADME, organism-based. Conditions: in vivo.
In data set [4] the target is Dual specificity protein kinase CLK1 (Homo sapiens) (UniProt P49759). Nature of the data set: Inhibition of CLK1 (unknown origin) at 0.1 uM.
Data set [5] deals with T1, hERG (KCNH2) (Homo sapiens, UniProt Q12809). Nature of the data set: Inhibition of human ERG expressed in HEK293 cells at 10 uM after 5 mins by patch clamp assay. Conditions: HEK293 cells that express hERG. Type of data set: cell-based.
Data set [6] concerns the target T1, hERG (KCNH2). Kind of data set: Inhibition of human ERG expressed in HEK293 cells at 1 uM after 5 mins by patch clamp assay. Format: cell-based. The conditions noted are these: HEK293 cells that express hERG. In general terms: In patch-clamp work, channel activity is measured electrically.
For data set [7], the species on record is Homo sapiens. Nature of the data set: Inhibition of PIM in human MM1S cells assessed as reduction in S6 s240/244 phosphorylation by Western blot analysis. Format: cell-based. (Immunoblotting shows a protein as a band on a membrane.)
Data set [8] in a line: Clearance in rat liver microsomes. Format: ADME, microsome.
The nature of data set [9]: Metabolic stability in rat intestinal microsomes assessed as compound remaining after 60 mins in presence of NADPH/UDPGA. Format: ADME, Intestine, Microsome. Conditions: intestinal microsomes, read-out: Stability.
Data set [10] is filed under the species Homo sapiens. Nature of the data set: Inhibition of PIM in human […] cells assessed as reduction in 4EBP1 phosphorylation by Western blot analysis. Format: cell-based.
Data set [11] can be described thus: Clearance in rat hepatocytes. Format: ADME, cell-based, Hepatocyte.
The target in data set [12] is Serine/threonine-protein kinase pim-3 (Homo sapiens, UniProt Q86V86). Kind of data set: Inhibition of PIM3 (unknown origin) using 5FAM-ARKRRRHPSGPPTA as substrate after 90 mins in presence of ATP by caliper microfluidic mobility shift assay.
The species entered for data set [13] is Homo sapiens. Kind of data set: Inhibition of PIM in human […] cells assessed as reduction in BAD phosphorylation by Western blot analysis. Format: cell-based.
Data set [14] deals with T2, Serine/threonine-protein kinase pim-1 (Homo sapiens, UniProt P11309). Kind of data set: Inhibition of PIM1 (unknown origin) using 5FAM-ARKRRRHPSGPPTA as substrate after 90 mins in presence of ATP by caliper microfluidic mobility shift assay.
Target sequence in this assay (P11309 whole entry): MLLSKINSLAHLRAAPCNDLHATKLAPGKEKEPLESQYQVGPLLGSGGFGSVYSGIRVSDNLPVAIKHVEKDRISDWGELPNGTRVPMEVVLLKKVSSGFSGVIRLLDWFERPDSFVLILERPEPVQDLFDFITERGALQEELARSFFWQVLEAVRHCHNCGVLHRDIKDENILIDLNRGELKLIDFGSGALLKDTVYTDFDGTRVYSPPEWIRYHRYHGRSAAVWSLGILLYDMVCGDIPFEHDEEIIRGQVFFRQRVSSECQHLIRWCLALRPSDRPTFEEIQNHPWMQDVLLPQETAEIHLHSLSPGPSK
Data set [15] deals with T2, Serine/threonine-protein kinase pim-1. Kind of data set: Inhibition of PIM1 (unknown origin) at 0.1 uM.
Target sequence in this assay (P11309 whole entry, looked up): as the sequence (P11309 whole entry) above
Data set [16] deals with Receptor-type tyrosine-protein kinase FLT3 (Homo sapiens) (UniProt P36888). Nature of the data set: Inhibition of FLT3 (unknown origin) at 0.1 uM.
For data set [17], the species on record is Homo sapiens. Nature of the data set: Inhibition of PIM in human MM1S cells assessed as reduction in S6 s235/236 phosphorylation by Western blot analysis. Format: cell-based.
In data set [18] the test system is Plasma. Kind of data set: Drug level in rat plasma treated with N4-Phenylpyrimidine-2,4-diamine at 5 mg/kg, po. Format: ADME, organism-based. Conditions: in vivo.
Data set [19] concerns Plasma. Nature of the data set: Drug metabolism in rat assessed as 6-((R)-1-(6-(5-(1-ethyl-1H-pyrazol-4-yl)-1H-pyrazolo[3,4-c]pyridin-3-yl)pyridin-2-yl)piperidin-3-ylamino)-3,4,5-trihydroxytetrahydro-2H-pyran-2-carboxylic acid metabolite formation in plasma at 5 mg/kg, po. Type of data set: ADME, organism-based. Conditions: in vivo.
Data set [20] is described as follows: Efflux ratio of apparent permeability in MDCK cells. The conditions noted are these: dog.
Data set [21] in a line: Metabolic stability in rat intestinal microsomes assessed as compound remaining after 60 mins in absence of NADPH/UDPGA. Type of data set: ADME, Intestine, Microsome. Conditions: intestinal microsomes, read-out: Stability.
For data set [22], the system named is Plasma. Nature of the data set: Drug metabolism in rat assessed as M1 metabolite formation in plasma at 5 mg/kg, po. The conditions noted are these: in vivo. Format: ADME, organism-based.
Data set [23] in a line: Metabolic stability in rat intestinal microsomes assessed as compound remaining after 60 mins in presence of UDPGA. Format: ADME, Intestine, Microsome. Conditions: read-out: Stability.
A short description of data set [24]: Metabolic stability in rat intestinal microsomes assessed as compound remaining after 60 mins in presence of NADPH. The conditions noted are these: read-out: Stability. Type of data set: ADME, Intestine, Microsome.
The nature of data set [25]: Kinetic solubility of compound at pH 7.4. The conditions noted are these: buffer.
A short description of data set [26]: Apparent permeability across apical to basolateral side in MDCK cells. Format: ADME, cell-based, Canis lupus familiaris. The conditions noted are these: dog.

Chain of Serine/threonine-protein kinase pim-2 (Q9P1W9 whole entry): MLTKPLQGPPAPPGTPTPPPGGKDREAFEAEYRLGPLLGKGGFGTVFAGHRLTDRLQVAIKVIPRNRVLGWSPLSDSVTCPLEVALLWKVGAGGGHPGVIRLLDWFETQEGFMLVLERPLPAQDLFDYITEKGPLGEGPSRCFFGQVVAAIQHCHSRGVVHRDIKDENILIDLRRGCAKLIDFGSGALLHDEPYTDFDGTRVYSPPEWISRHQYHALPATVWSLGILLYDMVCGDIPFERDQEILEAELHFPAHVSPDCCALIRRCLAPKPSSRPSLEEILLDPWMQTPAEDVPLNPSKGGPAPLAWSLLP
T1 sequence (Q12809 whole entry): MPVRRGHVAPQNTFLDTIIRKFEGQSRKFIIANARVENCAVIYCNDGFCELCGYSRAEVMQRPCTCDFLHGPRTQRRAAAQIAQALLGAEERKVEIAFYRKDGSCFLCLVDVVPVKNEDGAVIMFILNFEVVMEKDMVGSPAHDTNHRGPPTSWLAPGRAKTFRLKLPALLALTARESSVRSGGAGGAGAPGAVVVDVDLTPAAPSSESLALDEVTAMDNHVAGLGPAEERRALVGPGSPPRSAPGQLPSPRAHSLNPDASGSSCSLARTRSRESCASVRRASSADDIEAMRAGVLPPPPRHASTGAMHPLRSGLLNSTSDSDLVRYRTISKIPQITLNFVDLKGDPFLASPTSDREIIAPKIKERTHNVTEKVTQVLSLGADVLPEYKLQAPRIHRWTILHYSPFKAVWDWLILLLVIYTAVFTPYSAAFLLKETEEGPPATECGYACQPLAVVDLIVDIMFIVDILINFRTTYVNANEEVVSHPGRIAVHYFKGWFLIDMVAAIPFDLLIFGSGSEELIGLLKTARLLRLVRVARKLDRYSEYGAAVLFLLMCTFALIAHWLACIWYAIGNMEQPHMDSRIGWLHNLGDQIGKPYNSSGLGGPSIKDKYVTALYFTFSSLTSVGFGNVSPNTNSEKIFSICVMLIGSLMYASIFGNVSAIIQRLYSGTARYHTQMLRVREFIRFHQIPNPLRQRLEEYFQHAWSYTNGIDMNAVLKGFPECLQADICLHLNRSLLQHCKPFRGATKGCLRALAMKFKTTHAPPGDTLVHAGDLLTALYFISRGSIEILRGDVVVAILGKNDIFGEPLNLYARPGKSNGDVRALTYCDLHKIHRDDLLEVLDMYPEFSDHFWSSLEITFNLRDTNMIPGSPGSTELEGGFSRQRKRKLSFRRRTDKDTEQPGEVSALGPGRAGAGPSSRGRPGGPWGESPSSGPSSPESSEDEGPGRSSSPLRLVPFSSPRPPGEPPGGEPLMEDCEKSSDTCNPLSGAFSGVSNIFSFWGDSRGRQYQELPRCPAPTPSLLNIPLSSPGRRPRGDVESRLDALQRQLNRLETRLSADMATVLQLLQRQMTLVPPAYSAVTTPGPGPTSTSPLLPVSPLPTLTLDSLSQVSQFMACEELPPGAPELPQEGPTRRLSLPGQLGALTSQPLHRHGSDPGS
Chain of Dual specificity protein kinase CLK1 (Homo sapiens) (P49759 whole entry, looked up): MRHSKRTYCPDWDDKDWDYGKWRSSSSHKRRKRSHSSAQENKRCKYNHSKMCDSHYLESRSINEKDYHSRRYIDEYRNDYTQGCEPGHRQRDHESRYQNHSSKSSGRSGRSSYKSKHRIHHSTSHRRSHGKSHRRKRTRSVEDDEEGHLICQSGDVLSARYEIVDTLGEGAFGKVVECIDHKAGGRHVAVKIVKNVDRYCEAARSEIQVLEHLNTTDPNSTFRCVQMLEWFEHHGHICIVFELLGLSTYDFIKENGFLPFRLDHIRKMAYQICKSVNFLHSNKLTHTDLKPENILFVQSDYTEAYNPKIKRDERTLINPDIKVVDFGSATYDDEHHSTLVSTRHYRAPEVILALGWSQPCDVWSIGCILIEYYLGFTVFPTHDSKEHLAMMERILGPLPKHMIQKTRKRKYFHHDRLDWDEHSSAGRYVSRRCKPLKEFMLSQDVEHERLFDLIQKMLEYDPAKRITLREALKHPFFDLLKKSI
Chain of Receptor-type tyrosine-protein kinase FLT3 (Homo sapiens) (P36888 whole entry): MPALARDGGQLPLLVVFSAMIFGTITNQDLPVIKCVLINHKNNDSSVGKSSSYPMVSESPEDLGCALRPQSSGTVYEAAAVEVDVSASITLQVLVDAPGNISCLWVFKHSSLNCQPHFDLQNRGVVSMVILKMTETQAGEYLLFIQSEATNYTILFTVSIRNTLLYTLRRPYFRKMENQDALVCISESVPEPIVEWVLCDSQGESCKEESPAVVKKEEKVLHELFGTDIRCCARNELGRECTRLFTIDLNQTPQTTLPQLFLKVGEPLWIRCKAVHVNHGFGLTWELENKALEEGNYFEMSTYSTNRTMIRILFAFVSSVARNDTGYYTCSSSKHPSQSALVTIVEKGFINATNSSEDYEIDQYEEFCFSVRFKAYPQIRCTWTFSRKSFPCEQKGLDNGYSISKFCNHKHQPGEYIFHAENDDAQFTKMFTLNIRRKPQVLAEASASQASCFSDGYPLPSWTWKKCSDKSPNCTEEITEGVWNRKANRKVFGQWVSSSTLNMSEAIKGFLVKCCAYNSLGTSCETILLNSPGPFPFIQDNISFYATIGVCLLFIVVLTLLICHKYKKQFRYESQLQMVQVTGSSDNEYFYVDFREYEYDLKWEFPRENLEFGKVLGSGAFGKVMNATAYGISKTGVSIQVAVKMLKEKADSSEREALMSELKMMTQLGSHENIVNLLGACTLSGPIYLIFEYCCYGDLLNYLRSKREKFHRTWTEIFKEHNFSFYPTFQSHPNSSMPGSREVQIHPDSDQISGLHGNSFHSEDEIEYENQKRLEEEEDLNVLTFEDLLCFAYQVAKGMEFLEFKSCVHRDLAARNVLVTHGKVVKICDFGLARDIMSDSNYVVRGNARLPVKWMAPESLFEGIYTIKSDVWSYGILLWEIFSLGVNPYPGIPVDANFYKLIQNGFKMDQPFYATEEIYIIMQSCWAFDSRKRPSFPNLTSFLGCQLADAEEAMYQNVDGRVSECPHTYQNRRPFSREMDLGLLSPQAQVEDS

In general, clearance refers to the volume of plasma or blood freed of the substance per unit of time. By Ki is commonly meant the dissociation constant of the complex between target and ligand, obtained from inhibition or displacement. Broadly, the IC50 is the concentration needed to halve the response being measured. Broadly, the inhibition is the relative decrease from the control value, in per cent. On to `COc1ccc(-n2ncc3cnc(-c4cncc(C)n4)cc32)nc1N1CCC[C@H](N)C1`, for which the clearance in [1] was 34 mL/min/kg. The Ki was 110 pM in data set [2], 8 to 20 pM in data set [12] and 18 to 30 pM in data set [14]. This compound registered an IC50 with MM1.S of 500000 to 510000 pM. Further, the bioavailability in data set [3] was determined as 103%. Further, the inhibition in [4] was 97%; in the data set filed under Homo sapiens [7], “Dose-dependent effect”; in the data set filed under Homo sapiens [10] it was “Dose-dependent effect”; in the data set listed under Homo sapiens [13] it was “Dose-dependent effect”; in data set [15] it was 100%; in [16], 82%. The inhibition result in the data set listed under Homo sapiens [17] is “Dose-dependent effect”. On hERG (KCNH2) [5], this compound came in with an inhibition at 5 min, 10 µM of 49%. On hERG (KCNH2) [6], the inhibition at 5 min, 1 µM was found to be 37%. Moreover, the CLhep predicted in data set [8] is 29 mL/min/kg; in data set [11], 19 mL/min/kg. Also, the remaining at 1 h in data set [9] turned out to be 101%.
For the compound `CCn1cc(-c2cc3c(-c4cccc(N5CCC[C@@H](NC(C)=O)C5)n4)n[nH]c3cn2)cn1`, the Drug metabolism result with Plasma [18] was “Metabolite_Detected”.
As usually defined, the efflux ratio is the permeability from basolateral to apical divided by that in the opposite direction, in the common usage. In general, solubility (kinetic) refers to solubility judged after dilution from a stock solution rather than from solid. What is called Papp A→B is the apparent permeability from the apical to the basolateral side of a cell layer. Regarding `CCn1cc(-c2cc3c(-c4cccc(N5CCC[C@@H](N)C5)n4)n[nH]c3cn2)cn1`, the Drug metabolism result with Plasma [19], in the data set on Plasma [18] and in the data set on Plasma [22] was “Metabolite_Detected” each time. Also, the efflux ratio in data set [20] came out at 56. In data set [1], the clearance is 8 mL/min/kg. The remaining at 1 h in data set [21] worked out at 96%; in data set [23] it was 15%; in [24], 83%; in data set [9], 30%. In addition, in [3], the bioavailability amounted to 1%. Besides, the CLhep predicted in data set [8] was 24 mL/min/kg; in [11], 14 mL/min/kg. Moreover, in [25], the solubility (kinetic) stood at 116 µM (≈ 45.1 µg/mL). Besides, the Papp A→B in [26] worked out at 0.4 ×10⁻⁶ cm/s.
Regarding `Cc1cncc(-c2cc3c(-c4cccc(N5CCCNCC5)n4)n[nH]c3cn2)n1`, in data set [20], the efflux ratio is 4.9. In data set [1], this compound had a clearance of 65 mL/min/kg. Also, the Ki in [2] was in the range of 110 to 170 pM; in data set [12], 40 to 41 pM; in data set [14] it was 20 to 22 pM. Moreover, the remaining at 1 h in [21] worked out at 103%; in data set [23] it was 40%; in data set [24], 97%; in [9], 59%. Besides, the IC50 in the data set on MM1.S came to 220000 pM. In addition, in data set [3], the bioavailability amounted to 1.3%. The values for the CLhep predicted in data set [8] and in data set [11] were 33 mL/min/kg and 35 mL/min/kg, respectively. Moreover, the kinetic solubility in [25] is 38.5 µM (≈ 14.9 µg/mL). Also, in data set [26], the Papp A→B was 3.2 ×10⁻⁶ cm/s.
